The test system of this test is plaque biofilm grown from fresh pooled human saliva. Kind of test: in vitro plaque glycolysis model (iPGRM): acid production and glycolysis inhibition after treatment of 3-day biofilm. The class given is cell-based, plaque microorganisms from human saliva. The protocol:
Acid production and acid inhibition were determined with the in vitro plaque glycolysis model (iPGRM). The purpose of this technique is to provide a simple and quick method for determining if compounds have an influence on the metabolic pathways that plaque microorganisms utilize to produce toxins that adversely affect gingival health.
The in vitro plaque glycolysis model (iPGRM) is a technique in which plaque is grown from human saliva and treated with various agents to determine anti-glycolytic activity of treatments. When bacteria convert sugar into energy with the help of enzymes, acids are formed. These acids demineralize and damage the dental enamel. The purpose of this technique is to provide a simple and quick method for determining if treatment compounds have an inhibitory effect on the metabolic pathways that plaque microorganisms utilize for the production of acids or toxins and/or inhibit their growth. […]
[…] The pH of the media solutions was then measured to determine the amount of glycolysis inhibition relative to a negative control.
On Day 1, new glass rods (5 mm×90 mm) were polished approximately 25 mm from the un-tapered end on a lathe with silicon carbide paper of 240, 320, 400, and 600 grit used sequentially. […] After polishing, rods were stored until ready to run test. […]

SMILES strings stand for the structures.

Consider `[H]/N=C(\N/C(=N/[H])NCCCCCCNC(=N)NC(=N)Nc1ccc(Cl)cc1)Nc1ccc(Cl)cc1` [1% Chlorhexidine, Chlorhexidine], for which, where the note is “2 min treatment (1:5 in water), glycolysis inhibition relative to negative control (Crest Cavity Protection)”, the “Mean Acid Inhibition (%) Mean” value stood at 75.12%. Further, the “Acid Production (ΔpH) Mean” value (2 min treatment with dentifrice slurry or diluted treatment in water (1:5), ΔpH versus blank vials) was 0.4 ΔpH.

Source of the values: patent US20210093551A1, “Methods Of Use Of Oral Care Compositions Comprising Hops” (The Procter & Gamble Company, priority 2019, published 2021).
